Experiment [1] has as its target T1, human GLP-1R (Homo sapiens, UniProt P43220). Nature of the experiment: Intracellular calcium mobilization. The format is cell-based. The settings on record: for Emax: read-out: iCa2+ Emax. In general terms: Calcium assays in cells follow changes in intracellular calcium, usually with a dye or a luminescent sensor.
Experiment [2] addresses T1, human GLP-1R. Nature of the experiment: ERK1/2 phosphorylation. The settings on record: read-out: pERK1/2 Emax. The format is cell-based.
The subject of experiment [3] is human GLP-1R. The experiment in a line: Stimulus bias, operational model of agonism, Δlog. The format is cell-based. To be noted: bias relative to GLP-1; FlpInCHO; mean ± SEM, three to four experiments.
Experiment [4] concerns the target T1, human GLP-1R. The experiment in a line: β-Arrestin-1 recruitment BRET assay. To be noted: for Emax: read-out: β-Arrestin-1 Emax.
Experiment [5] has as its target T1, human GLP-1R. The experiment in a line: β-Arrestin-2 recruitment BRET assay. The settings on record: for Emax: read-out: β-Arrestin-2 Emax; for β-arrestin-2 recruitment, result in words: FlpInCHO BRET, native β-arrestin-2. A general note: Arrestin recruitment assays detect the binding of arrestin to an activated receptor.
The target of experiment [6] is T1, human GLP-1R. The experiment in a line: Radioligand competition binding on whole GLP-1R FlpInCHO cells. The settings on record: GLP-1R in FlpIn CHO cells.
In experiment [7] the target is T1, human GLP-1R. The experiment in a line: cAMP accumulation in GLP-1R FlpInCHO cells. The format is cell-based. The settings on record: Flp-In-CHO, read-out: cAMP Emax. For orientation: Changes in cAMP serve as a functional read-out for many G protein-coupled receptors.
The test system of experiment [8] is human GLP-1R. To be noted: FlpIn CHO cells; cited from earlier work.

“Also recorded” adds a separate entry of the source. *1 amine or outer side, *2 acyl side, *3 side chain or, on linkers, in order; H or OH if unused. Where a SMILES comes first, the peptide text is derived from it. [ ]: non-standard residue; d: D form. X1 = O=C([C@H]1CCC[C@@H]1N[*:1])[*:2]; X2 = O=C([C@H]1CNC[C@@H]1N[*:1])[*:2]; Aib = CC(C)(N)C(=O)O

These results are taken from publication PMC5794489 (Biochemical pharmacology, 2017).

T1 sequence (P43220 24-463): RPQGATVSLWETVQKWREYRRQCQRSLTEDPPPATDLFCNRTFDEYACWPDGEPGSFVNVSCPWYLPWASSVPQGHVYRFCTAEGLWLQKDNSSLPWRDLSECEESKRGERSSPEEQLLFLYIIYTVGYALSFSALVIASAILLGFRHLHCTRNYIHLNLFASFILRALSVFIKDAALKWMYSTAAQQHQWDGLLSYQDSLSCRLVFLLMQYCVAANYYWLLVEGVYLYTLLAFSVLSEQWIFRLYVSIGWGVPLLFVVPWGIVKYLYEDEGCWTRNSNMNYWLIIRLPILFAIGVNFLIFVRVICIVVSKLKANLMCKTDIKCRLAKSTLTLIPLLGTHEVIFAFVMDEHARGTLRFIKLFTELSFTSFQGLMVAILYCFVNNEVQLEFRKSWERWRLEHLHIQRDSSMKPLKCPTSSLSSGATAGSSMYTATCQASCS

Take `CC[C@H](C)[C@H](NC(=O)[C@H](Cc1ccccc1)NC(=O)[C@H](CCC(=O)O)NC(=O)[C@H]1CNC[C@@H]1NC(=O)[C@H](C)NC(=O)[C@H](C)NC(=O)[C@H](CCC(N)=O)NC(=O)CNC(=O)[C@H](CCC(=O)O)NC(=O)[C@H](CC(C)C)NC(=O)[C@H](Cc1ccc(O)cc1)NC(=O)[C@H](CO)NC(=O)[C@H](CO)NC(=O)[C@@H](NC(=O)[C@H](CC(=O)O)NC(=O)[C@H](CO)NC(=O)[C@@H](NC(=O)[C@H](Cc1ccccc1)NC(=O)[C@@H](NC(=O)CNC(=O)[C@H](CCC(=O)O)NC(=O)[C@H](C)NC(=O)[C@@H](N)Cc1c[nH]cn1)[C@@H](C)O)[C@@H](C)O)C(C)C)C(=O)N[C@H]1CCC[C@@H]1C(=O)N[C@@H](Cc1c[nH]c2ccccc12)C(=O)N[C@@H](CC(C)C)C(=O)N[C@H](C(=O)N[C@H]1CNC[C@@H]1C(=O)NCC(=O)N[C@@H](CCCNC(=N)N)C(=O)NCC(N)=O)C(C)C` [P1] (H-HAEGTFTSDVSSYLEGQAA[X2]EFI[X1]WLV[X2]GRG-NH2): the Emax at human GLP-1R [1] is 89 ± 8%. Moreover, the Emax on human GLP-1R [2] came out at 112 ± 8%. In the experiment on human GLP-1R [3], the “Δlog(τ/KA) Ca2+ vs cAMP” value is 0.4 ± 0.1, the “Δlog(τ/KA) pERK1/2 vs cAMP” value is 0.5 ± 0.2, the “Δlog(τ/KA) βArr1 vs Ca2+” value is given as −0.1 ± 0.2 and the “Δlog(τ/KA) βArr1 vs cAMP” value was 0.4 ± 0.1. Besides, in the experiment on human GLP-1R [3], the “Δlog(τ/KA) βArr1 vs pERK1/2” value was found to be 0.0 ± 0.2, the “Δlog(τ/KA) βArr2 vs Ca2+” value was −0.2 ± 0.2, the “Δlog(τ/KA) βArr2 vs cAMP” value was found to be 0.5 ± 0.2 and the “Δlog(τ/KA) βArr2 vs pERK1/2” value is reported as −0.1 ± 0.3. Also, the Emax on human GLP-1R [4] turned out to be 85 ± 7%. Further, the Emax on human GLP-1R [5] came to 108 ± 5%.
`CC[C@H](C)[C@H](NC(=O)[C@H](Cc1ccccc1)NC(=O)[C@H](CCC(=O)O)NC(=O)[C@H]1CNC[C@@H]1NC(=O)[C@H](C)NC(=O)[C@H](C)NC(=O)[C@H](CCC(N)=O)NC(=O)[C@H]1CCC[C@@H]1NC(=O)[C@H](CCC(=O)O)NC(=O)[C@H](CC(C)C)NC(=O)[C@H](Cc1ccc(O)cc1)NC(=O)[C@H]1CCC[C@@H]1NC(=O)[C@H](CO)NC(=O)[C@@H](NC(=O)[C@H](CC(=O)O)NC(=O)[C@H](CO)NC(=O)[C@@H](NC(=O)[C@H](Cc1ccccc1)NC(=O)[C@@H](NC(=O)CNC(=O)[C@H](CCC(=O)O)NC(=O)[C@H](C)NC(=O)[C@@H](N)Cc1c[nH]cn1)[C@@H](C)O)[C@@H](C)O)C(C)C)C(=O)N[C@H]1CCC[C@@H]1C(=O)N[C@@H](Cc1c[nH]c2ccccc12)C(=O)N[C@@H](CC(C)C)C(=O)N[C@H](C(=O)N[C@H]1CNC[C@@H]1C(=O)NCC(=O)N[C@@H](CCCNC(=N)N)C(=O)NCC(N)=O)C(C)C` [P3]: in the experiment on human GLP-1R [3], the “Δlog(τ/KA) βArr1 vs pERK1/2” value was −0.1 ± 0.3, the “Δlog(τ/KA) βArr2 vs cAMP” value is reported as 0.5 ± 0.3 and the “Δlog(τ/KA) βArr2 vs pERK1/2” value is on record as −0.6 ± 0.2.
Turning to `CC[C@H](C)[C@H](NC(=O)[C@H](Cc1ccccc1)NC(=O)[C@H](CCC(=O)O)NC(=O)[C@H]1CNC[C@@H]1NC(=O)[C@H](C)NC(=O)[C@H](C)NC(=O)[C@H](CCC(N)=O)NC(=O)[C@H]1CCC[C@@H]1NC(=O)[C@H](CCC(=O)O)NC(=O)[C@H](CC(C)C)NC(=O)[C@H](Cc1ccc(O)cc1)NC(=O)[C@H]1CCC[C@@H]1NC(=O)[C@H](CO)NC(=O)C(C)(C)NC(=O)[C@H](CC(=O)O)NC(=O)[C@H](CO)NC(=O)[C@@H](NC(=O)[C@H](Cc1ccccc1)NC(=O)[C@@H](NC(=O)CNC(=O)[C@H](CCC(=O)O)NC(=O)C(C)(C)NC(=O)[C@@H](N)Cc1c[nH]cn1)[C@@H](C)O)[C@@H](C)O)C(=O)N[C@H]1CCC[C@@H]1C(=O)N[C@@H](Cc1c[nH]c2ccccc12)C(=O)N[C@@H](CC(C)C)C(=O)N[C@H](C(=O)N[C@H]1CNC[C@@H]1C(=O)NCC(=O)N[C@@H](CCCNC(=N)N)C(=O)NCC(N)=O)C(C)C` [P4] (H-H[Aib]EGTFTSD[Aib]S[X1]YLE[X1]QAA[X2]EFI[X1]WLV[X2]GRG-NH2), the “further reduction in affinity relative to other α/β-peptides in this set” value at human GLP-1R [6] came to 10 fold. Also, the results for the Emax at human GLP-1R [7], at human GLP-1R [1] and on human GLP-1R [2] were 97 ± 7%, 90 ± 40% and 81 ± 8%, respectively. Moreover, in the experiment on human GLP-1R [3], the “Δlog(τ/KA) Ca2+ vs cAMP” value was −0.2 ± 0.2. The “β-arrestin-1 recruitment, result in words” value on human GLP-1R [4] (FlpInCHO BRET) is given as “no measurable signal”. For the same molecule, the “β-arrestin-2 recruitment, result in words” value (from here on “β-arrestin-2 recruitment”) at human GLP-1R [5] was “weak β-arrestin-2 responses; also recorded: no measurable signal”.
Consider `CC[C@H](C)[C@H](NC(=O)[C@H](Cc1ccccc1)NC(=O)[C@H](CCC(=O)O)NC(=O)[C@H](CCCCN)NC(=O)[C@H](C)NC(=O)[C@H](C)NC(=O)[C@H](CCC(N)=O)NC(=O)CNC(=O)[C@H](CCC(=O)O)NC(=O)[C@H](CC(C)C)NC(=O)[C@H](Cc1ccc(O)cc1)NC(=O)[C@H](CO)NC(=O)[C@H](CO)NC(=O)C(C)(C)NC(=O)[C@H](CC(=O)O)NC(=O)[C@H](CO)NC(=O)[C@@H](NC(=O)[C@H](Cc1ccccc1)NC(=O)[C@@H](NC(=O)CNC(=O)[C@H](CCC(=O)O)NC(=O)C(C)(C)NC(=O)[C@@H](N)Cc1c[nH]cn1)[C@@H](C)O)[C@@H](C)O)C(=O)N[C@@H](C)C(=O)N[C@@H](Cc1c[nH]c2ccccc12)C(=O)N[C@@H](CC(C)C)C(=O)N[C@H](C(=O)N[C@@H](CCCCN)C(=O)NCC(=O)N[C@@H](CCCNC(=N)N)C(=O)NCC(N)=O)C(C)C` [P6], for which the Emax on human GLP-1R [1] was determined as 78 ± 5%. Besides, the Emax on human GLP-1R [2] came to 80 ± 7%. Also, in the experiment on human GLP-1R [3], the “Δlog(τ/KA) Ca2+ vs cAMP” value is given as −0.1 ± 0.2, the “Δlog(τ/KA) pERK1/2 vs cAMP” value is reported as 0.1 ± 0.2, the “Δlog(τ/KA) βArr1 vs cAMP” value was determined as 0.4 ± 0.1 and the “Δlog(τ/KA) βArr1 vs pERK1/2” value worked out at 0.5 ± 0.3. Further, in the experiment with human GLP-1R [3], the “Δlog(τ/KA) βArr2 vs Ca2+” value is recorded as 0.0 ± 0.2, the “Δlog(τ/KA) βArr2 vs cAMP” value was −0.1 ± 0.2 and the “Δlog(τ/KA) βArr2 vs pERK1/2” value is listed as −0.3 ± 0.2. For the same molecule, at human GLP-1R [4], the Emax was determined as 72 ± 4%. Further, the Emax on human GLP-1R [5] was found to be 82 ± 5%.
For the molecule `CC[C@H](C)[C@H](NC(=O)[C@H](Cc1ccccc1)NC(=O)[C@H](CCC(=O)O)NC(=O)[C@H]1CNC[C@@H]1NC(=O)[C@H](C)NC(=O)[C@H](C)NC(=O)[C@H](CCC(N)=O)NC(=O)[C@H]1CCC[C@@H]1NC(=O)[C@H](CCC(=O)O)NC(=O)[C@H](CC(C)C)NC(=O)[C@H](Cc1ccc(O)cc1)NC(=O)[C@H]1CCC[C@@H]1NC(=O)[C@H](CO)NC(=O)[C@@H](NC(=O)[C@H](CC(=O)O)NC(=O)[C@H](CO)NC(=O)[C@@H](NC(=O)[C@H](Cc1ccccc1)NC(=O)[C@@H](NC(=O)CNC(=O)[C@H](CCC(=O)O)NC(=O)[C@H](C)NC(=O)[C@@H](N)Cc1c[nH]cn1)[C@@H](C)O)[C@@H](C)O)C(C)C)C(=O)N[C@@H](C)C(=O)N[C@@H](Cc1c[nH]c2ccccc12)C(=O)N[C@@H](CC(C)C)C(=O)N[C@H](C(=O)N[C@@H](CCCCN)C(=O)NCC(=O)N[C@@H](CCCNC(=N)N)C(=O)NCC(N)=O)C(C)C` [P8] (H-HAEGTFTSDVS[X1]YLE[X1]QAA[X2]EFIAWLVKGRG-NH2), the “reduction in affinity relative to GLP-1” value on human GLP-1R [6] was ~ 10 fold. Also, the Emax on human GLP-1R [7] worked out at 83 ± 5%. Moreover, the Emax on human GLP-1R [2] amounted to 80 ± 8%. Also, in the experiment on human GLP-1R [3], the “Δlog(τ/KA) pERK1/2 vs cAMP” value came to 0.7 ± 0.3 and the “Δlog(τ/KA) βArr1 vs pERK1/2” value is recorded as 0.0 ± 0.3. Moreover, the “β-arrestin-2 recruitment” value at human GLP-1R [5] was “weak β-arrestin-2 responses”.
For `CC[C@H](C)[C@H](NC(=O)[C@H](Cc1ccccc1)NC(=O)[C@H](CCC(=O)O)NC(=O)[C@H]1CNC[C@@H]1NC(=O)[C@H](C)NC(=O)[C@H](C)NC(=O)[C@H](CCC(N)=O)NC(=O)[C@H]1CCC[C@@H]1NC(=O)[C@H](CCC(=O)O)NC(=O)[C@H](CC(C)C)NC(=O)[C@H](Cc1ccc(O)cc1)NC(=O)[C@H]1CCC[C@@H]1NC(=O)[C@H](CO)NC(=O)[C@@H](NC(=O)[C@H](CC(=O)O)NC(=O)[C@H](CO)NC(=O)[C@@H](NC(=O)[C@H](Cc1ccccc1)NC(=O)[C@@H](NC(=O)CNC(=O)[C@H](CCC(=O)O)NC(=O)[C@H](C)NC(=O)[C@@H](N)Cc1c[nH]cn1)[C@@H](C)O)[C@@H](C)O)C(C)C)C(=O)N[C@H]1CCC[C@@H]1C(=O)N[C@@H](Cc1c[nH]c2ccccc12)C(=O)N[C@@H](CC(C)C)C(=O)N[C@H](C(=O)N[C@@H](CCCCN)C(=O)NCC(=O)N[C@@H](CCCNC(=N)N)C(=O)NCC(N)=O)C(C)C` [P9] (H-HAEGTFTSDVS[X1]YLE[X1]QAA[X2]EFI[X1]WLVKGRG-NH2), at human GLP-1R [6], the “reduction in affinity relative to GLP-1” value is ~ 10 fold. Moreover, the Emax on human GLP-1R [7] was determined as 107 ± 5%; at human GLP-1R [2], 73 ± 9%. Moreover, the “calcium mobilization, result in words” value at human GLP-1R [1] (FlpIn CHO human GLP-1R) is recorded as “essentially abolished calcium mobilization”. Further, in the experiment with human GLP-1R [3], the “Δlog(τ/KA) βArr1 vs pERK1/2” value is −0.1 ± 0.5. At human GLP-1R [5], the “β-arrestin-2 recruitment” value was “weak β-arrestin-2 responses”.
Consider exendin-4, for which, in the experiment on human GLP-1R [8], the “bias ERK1/2 phosphorylation over cAMP accumulation, in words” value is given as “does not exhibit bias toward ERK1/2 phosphorylation”.
On to “oxyntomodulin (HSQGTFTSDYSKYLDSRRAQDFVQWLMNTKRNRNNIA; Oxyntomodulin; UniProt P01275 53-89, looked up)”, for which, in the experiment on human GLP-1R [8], the “bias ERK1/2 phosphorylation over cAMP accumulation, in words” value was “biases the GLP-1R toward ERK1/2 phosphorylation over cAMP accumulation”.
